This passage reports inhibition, IC50 and melting point results from patent US7700606B2, “Imidazole amines as inhibitors of β-secretase” (Wyeth LLC, priority 2006, dated 2010).

One data set addresses T1, human BACE2 (Homo sapiens, UniProt Q9Y5Z0).
T1 sequence (Q9Y5Z0 63-518): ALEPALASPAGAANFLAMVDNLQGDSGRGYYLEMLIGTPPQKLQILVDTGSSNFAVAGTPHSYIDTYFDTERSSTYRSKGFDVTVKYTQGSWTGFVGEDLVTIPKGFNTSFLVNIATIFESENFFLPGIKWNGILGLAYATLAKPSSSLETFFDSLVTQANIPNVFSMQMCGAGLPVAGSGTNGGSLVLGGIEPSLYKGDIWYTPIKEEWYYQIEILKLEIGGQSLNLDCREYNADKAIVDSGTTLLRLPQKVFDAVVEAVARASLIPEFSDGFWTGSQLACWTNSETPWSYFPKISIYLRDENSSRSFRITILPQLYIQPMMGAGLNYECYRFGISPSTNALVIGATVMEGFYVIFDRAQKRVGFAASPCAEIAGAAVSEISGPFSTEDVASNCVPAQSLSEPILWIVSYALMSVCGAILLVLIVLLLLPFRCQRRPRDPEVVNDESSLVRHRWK
The data set is described as follows: Fluorescent kinetic assay for human recombinant BACE 2 (WABC-6 peptide substrate). The class given is biochemical. As to conditions: for IC50: 1.5 nM enzyme, 25 μM substrate, pH 4.5, room temperature. As to the method: (§1) Evaluation of the Enzyme Activity of Test Compounds and the Inhibition of hBACE1, MuBACE1 and hBACE2 by Test Compounds
Assay Conditions: 10 nM human BACE1 (or 10 nM Murine BACE1, 1.5 nM human BACE2) 25 μM substrate (WABC-6, MW 1549.6, from AnaSpec); final buffer conditions: 50 mM Na-Acetate, pH 4.5, 0.05% CHAPS, 25% PBS; temperature: room temperature; reagent information: Na-Acetate: Aldrich, Cat.#24,124-5 CHAPS: Research Organics, Cat. #1304C 1× PBS: Mediatech (Cellgro), Cat#21-031-CV; peptide substrate AbzSEVNLDAEFRDpa: AnaSpec, Peptide Name: WABC-6; determination of stock substrate (AbzSEVNLDAEFRDpa) concentration: a 25 mM stock solution in dimethyl sulfoxide (DMSO) is prepared using the peptide weight and MW and diluted to 25 μM. The concentration is determined by absorbance at 354 nm using an extinction coefficient ε of 18172 M^−1 cm^−1, The substrate stock is stored in small aliquots at −80° C. [Substrate Stock]=ABS^354 nm*10^6/18172 (in mM)
Calculation of % Inhibition: % Inhibition=100*(1−vi/v0) • (vi=substrate cleavage rate in the presence of inhibitor, • v0=substrate cleavage rate in the absence of inhibitor) IC50 Determination: % Inhibition=[(B*IC50^n)+(100*I0^n)]/(IC50^n+I0^n), Fluorescent Kinetic Assay for Human Recombinant BACE 2
This assay is used to provide kinetic and selectivity parameters for the analyses of the tested compounds.
Materials and methods: final assay conditions: 10 nM human BACE1 (or 10 nM Murine BACE1, 1.5 nM human BACE2) 25 μM Substrate (WABC-6, MW 1549.6, from AnaSpec). Final buffer conditions: 50 mM Na-Acetate, pH 4.5, 0.05% CHAPS, 25% PBS. Temperature: room temperature. Reagent Information: Na-Acetate: Aldrich, Cat.#24,124-5 CHAPS: Research Organics, Cat. #1304C 1× PBS: Mediatech (Cellgro), Cat#21-031-CV Peptide Substrate AbzSEVNLDAEFRDpa: AnaSpec, Peptide Name: WABC-6
Determination of stock substrate (AbzSEVNLDAEFRDpa) concentration: A 25 mM stock solution in DMSO is prepared using the peptide weight and MW, and diluted to 25 μM. The concentration is determined by absorbance at 354 nm using an extinction coefficient ε of 18172 M^−1cm^−1. The substrate stock is stored in small aliquots at −80° C. [Substrate Stock]=ABS^354 nm*10^6/18172 (in mM)
Determination of stock enzyme concentration: The stock concentration of each enzyme is determined by ABS at 280 nm using ε of 64150 M^−1cm^−1 for hBACE1 and MuBACE1, 62870 M^−1cm^−1 for hBACE2 in 6 M guanidinium hydrochloride (from Research Organics, Cat. #5134G-2), pH 6. (The extinction coefficient ε^280 nm for each enzyme is calculated based on known amino acid composition and published extinction coefficients for Trp ([…]) and Tyr ([…]) residues (Anal. Biochem. 182, 319-326).)
Dilution and Mixing Steps: Total Reaction Volume: 100 μL • 1. 2× inhibitor dilutions in buffer A (66.7 mM Na-Acetate, pH 4.5, 0.0667% CHAPS) are prepared, • 2. 4× enzyme dilution in buffer A (66.7 mM Na-Acetate, pH 4.5, 0.0667% CHAPS) are prepared, • 3. 100 μM substrate dilution in 1× PBS, 50 μL 2× Inhibitor and 25 μL 100 μM substrate are added to each well of 96-well plate (from DYNEX Technologies, VWR #: 11311-046), then immediately 25 μL 4× enzyme is added to the inhibitor and substrate mixer and the fluorescence readings are initiated.
Fluorescence Readings: Readings at λex 320 nm, λem 420 nm are taken every 40-sec for 30 min at room temperature and to determine the linear slope for substrate cleavage rate (vi).
Analysis of calculation of % inhibition: % Inhibition=100*(1−vi/v0) • vi=substrate cleavage rate in the presence of inhibitor, • v0=substrate cleavage rate in the absence of inhibitor) • IC50 Determination: % Inhibition=((B*IC50^n)+(100*I0^n))/(IC50^n+I0^n),
Unless otherwise noted, the IC50 value represents the value obtained at […].

The next data set addresses human BACE1 (Homo sapiens, UniProt P56817). Description: Fluorescent kinetic enzyme assay, inhibition of BACE1 (WABC-6 peptide substrate). In kind it is biochemical. As to conditions: 10 nM enzyme, 25 μM substrate, pH 4.5, room temperature. The method, then: as §1
Dilution and mixing steps: total reaction volume: 100 μL • 1. […] 100 μM substrate dilution in 1× PBS is prepared, • 4.
Fluorescence Readings: Readings at λex 320 nm and λem 420 nm are taken every 40-sec for 30 min at room temperature to determine the linear slope for substrate cleavage rate (vi).

Sequence of human BACE1 (P56817 46-501): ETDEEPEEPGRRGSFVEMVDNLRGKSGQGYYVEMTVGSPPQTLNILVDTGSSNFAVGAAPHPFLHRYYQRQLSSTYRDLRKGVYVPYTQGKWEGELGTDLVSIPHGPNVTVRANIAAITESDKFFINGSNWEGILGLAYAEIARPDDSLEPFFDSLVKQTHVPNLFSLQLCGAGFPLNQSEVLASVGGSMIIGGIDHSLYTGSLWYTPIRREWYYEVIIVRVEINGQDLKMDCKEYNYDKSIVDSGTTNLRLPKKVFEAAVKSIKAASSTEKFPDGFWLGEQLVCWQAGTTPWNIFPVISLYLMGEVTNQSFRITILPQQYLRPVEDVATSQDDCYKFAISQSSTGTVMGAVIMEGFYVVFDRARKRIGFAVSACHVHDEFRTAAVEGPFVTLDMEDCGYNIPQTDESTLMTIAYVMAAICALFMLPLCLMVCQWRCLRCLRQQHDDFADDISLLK

One may read the inhibition as the change of the read-out against control, counted positive when it falls. Usually IC50 stands for the concentration that gives 50% inhibition. Usually melting point stands for the temperature, or range, at which the solid turns liquid. With `NC1=NC(c2ccncc2)(c2cccc(-c3cccnc3F)c2)C2=NCCCN12` (stereo not drawn) [Example 1, 8-[3-(2-Fluoropyridin-3-yl)phenyl]-8-pyridin-4-yl-2,3,4,8-tetrahydroimidazo[1,5-a]pyrimidin-6-amine], the melting point was 125 to 131 °C. Besides, on human BACE2, the inhibition at 25 µM was found to be 51%. At human BACE1, this molecule registered an IC50 of 520 nM.

With `CCc1cc(C2(c3cccc(-c4cccnc4F)c3)N=C(N)N3CCCN=C32)cc(CC)n1` (stereo not drawn) [Example 2, 8-(2,6-Diethylpyridin-4-yl)-8-[3-(2-fluoropyridin-3-yl)phenyl]-2,3,4,8-tetrahydroimidazo[1,5-a]pyrimidin-6-amine], the melting point lay in the range of 174 to 176 °C. Besides, the inhibition at 25 µM on human BACE2 came to 38%. In addition, the IC50 on human BACE1 came to 10 nM.

`CCn1cc(C2(c3cccc(-c4cccnc4F)c3)N=C(N)N3CCCN=C32)cn1` (stereo not drawn) [Example 3, 8-(1-Ethyl-1H-pyrazol-4-yl)-8-[3-(2-fluoropyridin-3-yl)phenyl]-2,3,4,8-tetrahydroimidazo[1,5-a]pyrimidin-6-amine] came in with a melting point of 91 to 115 °C. Further, the concentration for half-maximal inhibition (IC50) on human BACE2 was determined as 3520 nM. At human BACE1, this molecule had an IC50 of 90 nM.

The molecule `NC1=NC(c2cccc(-c3cccnc3F)c2)(c2cnn(CC(F)(F)F)c2)C2=NCCCN12` (stereo not drawn) [Example 4, 8-[3-(2-Fluoropyridin-3-yl)phenyl]-8-[1-(2,2,2-trifluoroethyl)-1H-pyrazol-4-yl]-2,3,4,8-tetrahydroimidazo[1,5-a]pyrimidin-6-amine] displayed a melting point of 106 to 116 °C. The IC50 on human BACE2 was determined as 5120 nM. Further, inhibition at human BACE1 was half-maximal at 80 nM (IC50).

`NC1=NC(c2ccc(OC(F)(F)F)cc2)(c2cccc(-c3cccnc3F)c2)C2=NOCCN12` (stereo not drawn) [Example 5, 8-[3-(2-Fluoropyridin-3-yl)phenyl]-8-[4-(trifluoromethoxy)-phenyl]-3,4-dihydro-8H-imidazo[5,1-c][1,2,4]oxadiazin-6-amine]: the melting point was 102 to 117 °C. Further, at human BACE2, the IC50 was determined as 2020 nM. This molecule yielded an IC50 against human BACE1 of 30 nM.

`NC1=NC(c2ccc(OC(F)(F)F)cc2)(c2cccc(-c3cncc(F)c3)c2)C2=NCCON12` (stereo not drawn) [Example 6, 8-[3-(5-Fluoropyridin-3-yl)phenyl]-8-[4-(trifluoromethoxy)phenyl]-2,8-dihydro-3H-imidazo[1,5-b][1,2,4]oxadiazin-6-amine] returned a melting point of 120 to 135 °C. Moreover, the IC50 at human BACE2 turned out to be 1190 nM. Also, the half-maximal inhibitory concentration (IC50) on human BACE1 is 50 nM.
